Data published in ChEMBL document CHEMBL1201862, “PubChem BioAssay data set” (2004).
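48-hour exposure; five concentrations; linearly interpolated endpoints. Abbreviation: GI50, concentration required for 50% inhibition of growth.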 Active and inactive are the calls of the source. Cut-off read from the data, not from the text of the source: active = GI50 up to about 1.1 µM and inactive = higher.

How the values were obtained:
Test in all cases: NCI-60 cell line screen, 48 h
SN12C = tested on: SN12C
RPMI-8226 = tested on: RPMI-8226
LOX IMVI = tested on: LOX IMVI
MCF7 = tested on: MCF7
MOLT-4 = tested on: MOLT-4
BT-549 = tested on: BT-549
SF-268 = tested on: SF-268
UACC-62 = tested on: UACC-62
MDA-N = tested on: MDA-N
KM12 = tested on: KM12
U-251 = tested on: U-251
Hs-578T = tested on: Hs-578T
M19-MEL = tested on: M19-MEL
HOP-18 = tested on: HOP-18
NCI-H522 = tested on: NCI-H522
XF498 = tested on: XF498
HCT-15 = tested on: HCT-15
DMS-273 = tested on: DMS-273
Malme-3M = tested on: Malme-3M
SNB-78 = tested on: SNB-78

C/C(=C\c1ccccc1)n1c(=O)cc(C)n1C
GI50 (SN12C): > 100 µM (inactive)
GI50 (RPMI-8226): > 100 µM (inactive)
GI50 (LOX IMVI): > 100 µM (inactive)
GI50 (MCF7): > 100 µM (inactive)
GI50 (MOLT-4): 25.7 µM (inactive)
GI50 (BT-549): > 100 µM (inactive)
GI50 (SF-268): > 100 µM (inactive)
GI50 (UACC-62): > 100 µM (inactive)
GI50 (MDA-N): > 100 µM (inactive)
GI50 (KM12): > 100 µM (inactive)
GI50 (U-251): > 100 µM (inactive)
GI50 (Hs-578T): > 100 µM (inactive)

CN(C)CN(C)c1nc(N(C)C)nc(N(C)CN(C)C)n1
GI50 (M19-MEL): 31.8 µM (inactive)
GI50 (SN12C): 63.5 µM (inactive)
GI50 (HOP-18): > 100 µM (inactive)
GI50 (RPMI-8226): 27.2 µM (inactive)
GI50 (LOX IMVI): 22.9 µM (inactive)
GI50 (MOLT-4): 26.2 µM (inactive)
GI50 (NCI-H522): > 100 µM (inactive)
GI50 (XF498): 96.2 µM (inactive)
GI50 (SF-268): 51.6 µM (inactive)
GI50 (HCT-15): 24.7 µM
GI50 (UACC-62): 19.8 µM (inactive)
GI50 (KM12): > 100 µM (inactive)
GI50 (U-251): > 100 µM (inactive)
GI50 (DMS-273): 17.5 µM (inactive)

Cc1cc([N+](=O)[O-])ccc1/N=N/C(=O)NNc1ccc([N+](=O)[O-])cc1C
GI50 (Malme-3M): 17.3 µM (inactive)
GI50 (SN12C): 16.7 µM (inactive)
GI50 (RPMI-8226): 21.3 µM (inactive)
GI50 (LOX IMVI): 15.9 µM (inactive)
GI50 (MCF7): 3.18 µM (inactive)
GI50 (MOLT-4): 15.5 µM (inactive)
GI50 (NCI-H522): 25 µM (inactive)
GI50 (BT-549): 11.6 µM (inactive)
GI50 (SF-268): 20 µM (inactive)
GI50 (HCT-15): 19.1 µM
GI50 (UACC-62): 13.5 µM (inactive)
GI50 (MDA-N): 15.7 µM (inactive)
GI50 (U-251): 17.5 µM (inactive)

COn1oc(=O)c2ccccc21
GI50 (Malme-3M): 91.2 µM (inactive)
GI50 (SN12C): > 100 µM (inactive)
GI50 (RPMI-8226): > 100 µM (inactive)
GI50 (LOX IMVI): > 100 µM (inactive)
GI50 (MCF7): > 100 µM (inactive)
GI50 (MOLT-4): > 100 µM (inactive)
GI50 (NCI-H522): 11.5 µM (inactive)
GI50 (BT-549): > 100 µM (inactive)
GI50 (SF-268): > 100 µM (inactive)
GI50 (HCT-15): > 100 µM
GI50 (UACC-62): > 100 µM (inactive)
GI50 (MDA-N): > 100 µM (inactive)
GI50 (KM12): > 100 µM (inactive)
GI50 (U-251): > 100 µM (inactive)
GI50 (Hs-578T): > 100 µM (inactive)

Nc1nc(Cl)cc(NCCCCO)n1
GI50 (M19-MEL): > 100 µM (inactive)
GI50 (Malme-3M): > 100 µM (inactive)
GI50 (SN12C): > 100 µM (inactive)
GI50 (RPMI-8226): > 100 µM (inactive)
GI50 (LOX IMVI): > 100 µM (inactive)
GI50 (SNB-78): 15.9 µM (inactive)
GI50 (MOLT-4): > 100 µM (inactive)
GI50 (SF-268): > 100 µM (inactive)
GI50 (HCT-15): > 100 µM
GI50 (UACC-62): > 100 µM (inactive)
GI50 (KM12): > 100 µM (inactive)
GI50 (U-251): > 100 µM (inactive)
GI50 (DMS-273): > 100 µM (inactive)

C[C@]12CCC3[C@@H](C[C@H]4OC(=O)[C@@]35CCC(=O)C=C45)C1CCC2=O (some centres undefined)
GI50 (M19-MEL): > 100 µM (inactive)
GI50 (Malme-3M): > 100 µM (inactive)
GI50 (SN12C): > 100 µM (inactive)
GI50 (HOP-18): > 100 µM (inactive)
GI50 (RPMI-8226): > 100 µM (inactive)
GI50 (MOLT-4): > 100 µM (inactive)
GI50 (NCI-H522): > 100 µM (inactive)
GI50 (XF498): > 100 µM (inactive)
GI50 (SF-268): > 100 µM (inactive)
GI50 (HCT-15): > 100 µM
GI50 (KM12): > 100 µM (inactive)
GI50 (U-251): > 100 µM (inactive)

Cc1ccc(NC(=O)C2C(=O)N(c3ccc(C)c(C)c3)C(=O)/C2=N\NC(N)=S)cc1C (centres undefined)
GI50 (M19-MEL): > 100 µM (inactive)
GI50 (Malme-3M): > 100 µM (inactive)
GI50 (SN12C): 53.2 µM (inactive)
GI50 (RPMI-8226): > 100 µM (inactive)
GI50 (LOX IMVI): > 100 µM (inactive)
GI50 (SNB-78): > 100 µM (inactive)
GI50 (MOLT-4): 42.6 µM (inactive)
GI50 (NCI-H522): 50.2 µM (inactive)
GI50 (XF498): 97.1 µM (inactive)
GI50 (SF-268): 61.4 µM (inactive)
GI50 (HCT-15): > 100 µM
GI50 (UACC-62): 50 µM (inactive)
GI50 (KM12): > 100 µM (inactive)
GI50 (U-251): 58.3 µM (inactive)
GI50 (DMS-273): > 100 µM (inactive)

O=P(Nc1ccc(Cl)cc1)(Oc1ccccc1)N(CCCl)CCCl (centres undefined)
GI50 (M19-MEL): > 100 µM (inactive)
GI50 (Malme-3M): > 100 µM (inactive)
GI50 (SN12C): > 100 µM (inactive)
GI50 (HOP-18): > 100 µM (inactive)
GI50 (SNB-78): > 100 µM (inactive)
GI50 (MOLT-4): > 100 µM (inactive)
GI50 (NCI-H522): > 100 µM (inactive)
GI50 (SF-268): > 100 µM (inactive)
GI50 (HCT-15): > 100 µM
GI50 (UACC-62): > 100 µM (inactive)
GI50 (KM12): > 100 µM (inactive)
GI50 (U-251): > 100 µM (inactive)
GI50 (DMS-273): > 100 µM (inactive)

Oc1cc(-c2ccc(Cl)cc2)nc2ncccc12
GI50 (Malme-3M): 28.6 µM (inactive)
GI50 (SN12C): 75.9 µM (inactive)
GI50 (RPMI-8226): 24.3 µM (inactive)
GI50 (LOX IMVI): 49 µM (inactive)
GI50 (MCF7): 16.6 µM (inactive)
GI50 (MOLT-4): 40.2 µM (inactive)
GI50 (NCI-H522): 40.3 µM (inactive)
GI50 (BT-549): > 100 µM (inactive)
GI50 (SF-268): 53.2 µM (inactive)
GI50 (HCT-15): 27.4 µM
GI50 (UACC-62): 28.9 µM (inactive)
GI50 (KM12): 14.9 µM (inactive)
GI50 (U-251): 36.6 µM (inactive)
GI50 (Hs-578T): 56.2 µM (inactive)

CCC1NC(/N=N/c2ccc([N+](=O)[O-])cc2)(P(=O)(OC(C)C)OC(C)C)OC1=O (centres undefined)
GI50 (M19-MEL): > 100 µM (inactive)
GI50 (Malme-3M): > 100 µM (inactive)
GI50 (SN12C): > 100 µM (inactive)
GI50 (RPMI-8226): > 100 µM (inactive)
GI50 (SNB-78): > 100 µM (inactive)
GI50 (MOLT-4): > 100 µM (inactive)
GI50 (NCI-H522): > 100 µM (inactive)
GI50 (XF498): > 100 µM (inactive)
GI50 (SF-268): > 100 µM (inactive)
GI50 (UACC-62): 97.1 µM (inactive)
GI50 (KM12): > 100 µM (inactive)
GI50 (U-251): > 100 µM (inactive)
GI50 (DMS-273): > 100 µM (inactive)
